Measured values from patent US12157746B2, “Tetrahydro-1H-pyrazino[2,1-a]isoindolylquinoline compounds for the treatment of autoimmune disease” (F. HOFFMANN-LA ROCHE AG, priority 2018, dated 2024).

Biological target: T1, hERG K+ channel (Homo sapiens, UniProt Q12809)
T1 construct: expressed in transfected cells; host or cells: CHO (Chinese hamster ovary) cells, CHOhERG
Test: hERG channel inhibition assay
Format: cell-based
Settings: patch-clamp (voltage-clamp, whole-cell); for IC50: CHO cells expressing hERG; for IC20: human, CHO cells stably expressing hERG
Method: hERG Channel Inhibition Assay
The hERG K^+ channels were cloned in humans and stably expressed in a CHO (Chinese hamster ovary) cell line. CHOhERG cells were used for patch-clamp (voltage-clamp, whole-cell) experiments. Cells were stimulated by a voltage pattern to activate hERG channels and conduct IKhERG currents (rapid delayed outward rectifier potassium current of the hERG channel). After the cells were stabilized for a few minutes, the amplitude and kinetics of IKhERG were recorded at a stimulation frequency of 0.1 Hz (6 bpm). Thereafter, the test compound was added to the preparation at increasing concentrations. For each concentration, an attempt was made to reach a steady-state effect, usually, this was achieved within 3-10 min at which time the next highest concentration was applied. The amplitude and kinetics of IKhERG are recorded in each concentration of the drug which were compared to the control values (taken as 100%). (references: Redfem W S, Carlsson L, Davis A S, Lynch W G, MacKenzie I, Palethorpe S, Siegl P K, Strang I, Sullivan A T, Wallis R, Camm A J, Hammond T G. 2003; Relationships between preclinical cardiac electrophysiology, clinical QT interval prolongation and torsade de pointes for a broad range of drugs: evidence for a provisional safety margin in drug development. Cardiovasc. Res. 58:32-45, Sanguinetti M C, Tristani-Firouzi M. 2006; hERG potassium channels and cardiac arrhythmia. Nature 440:463-469, Webster R, Leishman D, Walker D. 2002; Towards a drug concentration effect relationship for QT prolongation and torsades de pointes. Curr. Opin. Drug Discov. Devel. 5:116-26).

T1 sequence (Q12809 whole entry): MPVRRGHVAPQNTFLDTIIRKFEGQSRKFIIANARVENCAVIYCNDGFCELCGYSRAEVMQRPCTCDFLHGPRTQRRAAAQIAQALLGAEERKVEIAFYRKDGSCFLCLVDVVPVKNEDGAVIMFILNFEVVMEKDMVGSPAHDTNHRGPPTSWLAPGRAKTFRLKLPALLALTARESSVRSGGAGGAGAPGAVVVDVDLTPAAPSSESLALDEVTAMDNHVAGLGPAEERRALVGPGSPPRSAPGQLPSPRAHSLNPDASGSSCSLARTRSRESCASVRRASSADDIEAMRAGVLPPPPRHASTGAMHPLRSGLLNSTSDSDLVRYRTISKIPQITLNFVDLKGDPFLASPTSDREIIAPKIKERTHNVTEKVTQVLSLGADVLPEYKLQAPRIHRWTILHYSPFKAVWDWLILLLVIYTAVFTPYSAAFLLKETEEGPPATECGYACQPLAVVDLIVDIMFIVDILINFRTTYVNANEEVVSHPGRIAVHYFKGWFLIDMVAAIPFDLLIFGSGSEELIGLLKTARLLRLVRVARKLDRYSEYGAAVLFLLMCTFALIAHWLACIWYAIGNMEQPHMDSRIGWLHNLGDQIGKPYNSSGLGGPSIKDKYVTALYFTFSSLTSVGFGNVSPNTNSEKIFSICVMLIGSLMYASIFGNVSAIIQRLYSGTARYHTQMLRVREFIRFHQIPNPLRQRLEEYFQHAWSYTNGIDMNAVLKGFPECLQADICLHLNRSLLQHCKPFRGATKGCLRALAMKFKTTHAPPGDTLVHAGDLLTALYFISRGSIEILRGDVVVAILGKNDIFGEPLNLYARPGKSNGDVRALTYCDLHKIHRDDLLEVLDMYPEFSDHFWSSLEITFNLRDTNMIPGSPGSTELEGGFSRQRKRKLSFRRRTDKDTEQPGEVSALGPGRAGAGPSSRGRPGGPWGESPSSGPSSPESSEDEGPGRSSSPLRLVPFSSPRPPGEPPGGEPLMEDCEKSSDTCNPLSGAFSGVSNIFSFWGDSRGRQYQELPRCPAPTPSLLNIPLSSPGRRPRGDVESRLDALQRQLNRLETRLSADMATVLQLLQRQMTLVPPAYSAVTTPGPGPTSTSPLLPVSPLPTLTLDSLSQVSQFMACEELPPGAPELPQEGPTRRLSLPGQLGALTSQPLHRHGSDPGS

CO[C@H]1CN(c2ccc3c(c2)CN2[C@H](C)CN(c4ccc(C#N)c5ncccc45)C[C@H]32)C[C@@H]1N (relative stereo) [Example 16, 5-[(4R,10bS)-8-[trans-3-amino-4-methoxy-pyrrolidin-1-yl]-4-methyl-3,4,6,10b-tetrahydro-1H-pyrazino[2,1-a]isoindol-2-yl]quinoline-8-carbonitrile]
IC50: > 20 µM
IC20: > 10 µM

C[C@@H]1CN(c2ccc(C#N)c3ncccc23)CC2c3ccc(N4C[C@H](N)[C@@H](O)C4)cc3CN21 (relative stereo) [Example 21, 5-[(4R,10bS)-8-[trans-3-amino-4-hydroxy-pyrrolidin-1-yl]-4-methyl-3,4,6,10b-tetrahydro-1H-pyrazino[2,1-a]isoindol-2-yl]quinoline-8-carbonitrile]
IC50: > 20 µM
IC20: > 10 µM

C[C@@H]1CN(c2ccc(C#N)c3ncccc23)C[C@@H]2c3ccc(N4C[C@@H](N)[C@H](O)C4)cc3CN12 (single isomer, unassigned) [Example 40B]
IC50: > 20 µM
IC20: > 10 µM

C[C@@H]1CN(c2ccc(C#N)c3ncccc23)C[C@@H]2c3ccc(N4CCN[C@H](CO)C4)cc3CN12 [Example 12, 5-[(4R,10bS)-8-[(3S)-3-(hydroxymethyl)piperazin-1-yl]-4-methyl-3,4,6,10b-tetrahydro-1H-pyrazino[2,1-a]isoindol-2-yl]quinoline-8-carbonitrile]
IC50: > 20 µM
IC20: > 10 µM

C[C@@H]1CN(c2ccc(C#N)c3ncccc23)C[C@@H]2c3ccc(N4CCNCC(O)C4)cc3CN12 (stereo partly drawn) [Example 15, 5-[(4R,10bS)-8-(6-hydroxy-1,4-diazepan-1-yl)-4-methyl-3,4,6,10b-tetrahydro-1H-pyrazino[2,1-a]isoindol-2-yl]quinoline-8-carbonitrile]
IC50: > 20 µM
IC20: > 10 µM

C[C@@H]1CN(c2ccc(C#N)c3ncccc23)C[C@@H]2c3ccc(N4CC(N)C4)cc3CN12 [Example 22, 5-[(4R,10bS)-8-(3-aminoazetidin-1-yl)-4-methyl-3,4,6,10b-tetrahydro-1H-pyrazino[2,1-a]isoindol-2-yl]quinoline-8-carbonitrile]
IC50: > 20 µM
IC20: 5 µM

C[C@@H]1CN(c2ccc(C#N)c3ncccc23)C[C@@H]2c3ccc(NCCN(C)C)cc3CN12 [Example 26, 5-[(4R,10bS)-8-[2-(dimethylamino)ethylamino]-4-methyl-3,4,6,10b-tetrahydro-1H-pyrazino[2,1-a]isoindol-2-yl]quinoline-8-carbonitrile]
IC50: > 20 µM
IC20: 5 µM

C[C@@H]1CN(c2ccc(C#N)c3ncccc23)C[C@@H]2c3ccc(NC4CNC4)cc3CN12 [Example 28, 5-[(4R,10S)-8-(azetidin-3-ylamino)-4-methyl-3,4,6,10b-tetrahydro-1H-pyrazino[2,1-a]isoindol-2-yl]quinoline-8-carbonitrile]
IC50: > 20 µM
IC20: > 10 µM

C[C@@H]1CN(c2ccc(C#N)c3ncccc23)C[C@@H]2c3ccc(N4CC5(CNCCO5)C4)cc3CN12 [Example 35, 5-[(4R,10bS)-4-methyl-8-(5-oxa-2,8-diazaspiro[3.5]nonan-2-yl)-3,4,6,10b-tetrahydro-1H-pyrazino[2,1-a]isoindol-2-yl]quinoline-8-carbonitrile]
IC50: > 20 µM
IC20: > 10 µM

C[C@@H]1CN(c2ccc(C#N)c3ncccc23)C[C@@H]2c3ccc(N4CC5(CNC5)C4)cc3CN12 [Example 36, 5-[(4R,10bS)-8-(2,6-diazaspiro[3.3]heptan-2-yl)-4-methyl-3,4,6,10b-tetrahydro-1H-pyrazino[2,1-a]isoindol-2-yl]quinoline-8-carbonitrile]
IC50: > 20 µM
IC20: > 10 µM

C[C@@H]1CN(c2ccc(C#N)c3ncccc23)C[C@@H]2c3ccc(N4CC5(CCN5)C4)cc3CN12 [Example 37, 5-[(4R,10bS)-8-(1,6-diazaspiro[3.3]heptan-6-yl)-4-methyl-3,4,6,10b-tetrahydro-1H-pyrazino[2,1-a]isoindol-2-yl]quinoline-8-carbonitrile]
IC50: > 20 µM
IC20: 8.6 µM

C[C@@H]1CN(c2ccc(C#N)c3ncccc23)C[C@@H]2c3ccc(N4CC5(CN(C)C5)C4)cc3CN12 [Example 38, 5-[(4R,10bS)-4-methyl-8-(6-methyl-2,6-diazaspiro[3.3]heptan-2-yl)-3,4,6,10b-tetrahydro-1H-pyrazino[2,1-a]isoindol-2-yl]quinoline-8-carbonitrile]
IC50: > 20 µM
IC20: > 10 µM

COC12CNCC1CN(c1ccc3c(c1)CN1[C@H](C)CN(c4ccc(C#N)c5ncccc45)C[C@H]31)C2 (stereo partly drawn) [Example 41, 5-[(4R,10bS)-8-(3a-methoxy-1,2,3,4,6,6a-hexahydropyrrolo[3,4-c]pyrrol-5-yl)-4-methyl-3,4,6,10b-tetrahydro-1H-pyrazino[2,1-a]isoindol-2-yl]quinoline-8-carbonitrile]
IC50: > 20 µM
IC20: > 10 µM

CN[C@H]1CN(c2ccc3c(c2)CN2[C@H](C)CN(c4ccc(C#N)c5ncccc45)C[C@H]32)C[C@@H]1O [Example 42, 5-[(4R,10bS)-8-[(3S,4S)-3-hydroxy-4-(methylamino)pyrrolidin-1-yl]-4-methyl-3,4,6,10b-tetrahydro-1H-pyrazino[2,1-a]isoindol-2-yl]quinoline-8-carbonitrile]
IC50: > 20 µM
IC20: 6.7 µM

CN[C@@H]1CN(c2ccc3c(c2)CN2[C@H](C)CN(c4ccc(C#N)c5ncccc45)C[C@H]32)C[C@H]1O [Example 43, 5-[(4R,10bS)-4-methyl-8-[(3R,4R)-3-hydroxy-4-(methylamino)pyrrolidin-1-yl]-3,4,6,10b-tetrahydro-1H-pyrazino[2,1-a]isoindol-2-yl]quinoline-8-carbonitrile]
IC50: > 20 µM
IC20: 5.2 µM

C[C@@H]1CN(c2ccc(C#N)c3ncccc23)C[C@@H]2c3ccc(N4C[C@H]5NCCO[C@@H]5C4)cc3CN12 [Example 44, 5-[(4R,10bS)-4-methyl-8-[(4aR,7aR)-3,4,4a,5,7,7a-hexahydro-2H-pyrrolo[3,4-b][1,4]oxazin-6-yl]-3,4,6,10b-tetrahydro-1H-pyrazino[2,1-a]isoindol-2-yl]quinoline-8-carbonitrile]
IC50: > 20 µM
IC20: 6.4 µM

C[C@@H]1CN(c2ccc(C#N)c3ncccc23)C[C@@H]2c3ccc(N4C[C@@H](N)[C@](C)(O)C4)cc3CN12 [Example 45A, 5-[(4R,10bS)-8-[(3R,4R)-4-amino-3-hydroxy-3-methyl-pyrrolidin-1-yl]-4-methyl-3,4,6,10b-tetrahydro-1H-pyrazino[2,1-a]isoindol-2-yl]quinoline-8-carbonitrile]
IC50: > 20 µM
IC20: 7.4 µM

C[C@@H]1CN(c2ccc(C#N)c3ncccc23)C[C@@H]2c3ccc(N4C[C@H](N)[C@@](C)(O)C4)cc3CN12 [Example 45B, 5-[(4R,10bS)-8-[(3S,4S)-4-amino-3-hydroxy-3-methyl-pyrrolidin-1-yl]-4-methyl-3,4,6,10b-tetrahydro-1H-pyrazino[2,1-a]isoindol-2-yl]quinoline-8-carbonitrile]
IC50: > 20 µM
IC20: > 10 µM

C[C@@H]1CN(c2ccc(C#N)c3ncccc23)C[C@@H]2c3ccc(N4CCNC[C@H](O)C4)cc3CN12 [Example 53A, 5-[(4R,10bS)-8-[(6S)-6-hydroxy-1,4-diazepan-1-yl]-4-methyl-3,4,6,10b-tetrahydro-1H-pyrazino[2,1-a]isoindol-2-yl]quinoline-8-carbonitrile]
IC50: > 20 µM
IC20: 6.6 µM
